The values below come from patent publication US20080187568A1, “Polymerization with precipitation of proteins for elution in physiological solution” (priority 2007, published 2008).

Usually solubility stands for the concentration that dissolves in the medium under given conditions.

The conditions of series [1]: cited from earlier work.
Series [2] can be described thus: Solubility / precipitation of the agent in hydrogel precursor solutions.
Procedure: (§1) 0.68 grams 4 arm-n-hydroxysuccinimide ester of polyethylene glycol and carboxymethylene-butyric acid, average molecular weight 10000 Daltons (Shearwater 4 arm CM-HBA-NS-10K) is dissolved in 2.82 g 0.01M phosphate buffer at pH 4.0 and is sterile filtered. Solution B is prepared by dissolving 0.025 grams trilysine and 10 mg bovine fibrinogen (purchased from Sigma Chemicals) in 3.47 g 0.1M borate buffer at pH 9.5 with 0.1 mg/mL methylene blue for visualization. 1 ml of solution A and B are mixed to promote condensation polymerization. Trilysine and PEG-NHS ester react to form a crosslinked hydrogel.
(§2) 1.41 grams 4 arm-n-hydroxysuccinimide ester of polyethylene glycol carboxymethylene-butyric acid, average molecular weight 10000 Daltons (Shearwater 4 arm CM-HBA-NS-10K) and 100 mg of Bone Morphogenetic Protein 2 (BMP-2 protein, recombinant, Sigma catalog B3555) are mixed in a solid state as lyophilized powders and are dissolved/suspended in 2.96 ml 0.1 M HCl just prior to use. Solution B is prepared by dissolving 0.06 grams dilysine (purchased from Sigma Chemicals) in 7.2 g 0.1M borate buffer at pH 9.5 with 0.1 mg/mL methylene blue for visualization. 1 ml of solution A and B are mixed to promote condensation polymerization between dilysine and PEG-NHS ester. Dilysine and PEG-NHS ester react to form a crosslinked hydrogel. HCl is neutralized by borate buffer to form a neutral/basic solution medium.
(§3) 1.37 grams 4 arm-n-hydroxysuccinimide ester of polyethylene glycol carboxymethylene-butyric acid, average molecular weight 10000 Daltons (Shearwater 4 arm CM-HBA-NS-10K) is dissolved in 5.64 g 0.01M phosphate buffer at pH 4.0 and is sterile filtered. Solution B is prepared by dissolving 0.050 grams trilysine and 100 mg paclitaxel in 6.94 g 0.1M borate buffer at pH 9.5 with 0.5 mg/mL methylene blue for visualization. […] Trilysine and PEG-NHS ester react to form a crosslinked hydrogel.
The conditions of series [3]: pH 9.5.
Procedure: as §1, §2, §3

Read-outs that look alike come from different tables or passages of the source.

Turning to `CC(C)(C)NC[C@H](O)COc1nsnc1N1CCOCC1` [Timolol], in series [1], the “solubility at pH 4” value is listed as 1000 g/L, the “solubility at pH 7” value was 160 g/L and the “solubility at pH 10” value is given as 2.4 g/L.
On to Fibrinogen, for which the “precipitation on mixing with PEG-NHS ester solution” value in series [2] (fibrinogen in trilysine solution mixed with PEG-NHS ester solution) is on record as “precipitated”.
Turning to `Cc1c(C)c2c(c(C)c1O)CC[C@@](C)(CCC[C@H](C)CCC[C@H](C)CCCC(C)C)O2` [vitamin E, alpha-Tocopherol], the “solubility in borate buffer” value in series [3] is “insoluble”.
`COc1c(N2C[C@@H]3CCCN[C@@H]3C2)c(F)cc2c(=O)c(C(=O)O)cn(C3CC3)c12` [Moxifloxacin]: in series [1], the “solubility at pH 4” value is recorded as 11 g/L, the “solubility at pH 7” value was 0.13 g/L and the “solubility at pH 10” value is given as 0.14 g/L.
Take `CO[C@H]1/C=C/O[C@@]2(C)Oc3c(C)c(O)c4c(O)c(c(/C=N/N5CCN(C)CC5)c(O)c4c3C2=O)NC(=O)/C(C)=C\C=C\[C@H](C)[C@H](O)[C@@H](C)[C@@H](O)[C@@H](C)[C@H](OC(C)=O)[C@@H]1C` [Rifampicin, rifampicin]: in series [1], the “solubility at pH 4” value is on record as 1.6 g/L, the “solubility at pH 7” value is recorded as 0.16 g/L and the “solubility at pH 10” value was 1000 g/L.
Turning to `CC(=O)O[C@H]1C(=O)[C@@]2(C)[C@H]([C@H](OC(=O)c3ccccc3)[C@]3(O)C[C@H](OC(=O)[C@H](O)[C@@H](NC(=O)c4ccccc4)c4ccccc4)C(C)=C1C3(C)C)[C@]1(OC(C)=O)CO[C@@H]1C[C@@H]2O` [paclitaxel], in series [2] (0.1M borate buffer at pH 9.5 (solution B)), the “solubility in borate buffer” value is “insoluble”.
